The subject of one assay is A101D (Melanoma). Nature of the assay: Bliss excess, mean over the matrix (fraction); higher = more synergy. The method in brief:
(§1)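 After 24 hours at 37°C and 5% CO2 in 1536-well plates, cells in DMEM/F12 or RPMI plus 10% FBS received two-drug dose matrices for 72 hours. Viability came from CellTiter-Glo 2.0 luminescence and was scaled as inhibition, anchored at 0 by vehicle wells and at 1 by blank wells. Combination Emax is taken as the second-highest inhibition in the matrix, and Bliss excess as the observed combination effect less EA + EB − EA·EB, with EA and EB the single-agent effects.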

Assay [1] relates to CA46 (Burkitt's Lymphoma). Described as above. The method in brief: as §1
The next assay concerns COLO-792 (Melanoma). The description is as above. The method in brief: as §1
In assay [2] the test system is DMS-53 (Small Cell Lung Carcinoma). The assay is described as above. The method in brief:
as §1

Assay [3] has as its system DU-4475 (Breast Carcinoma). Described as above. The method, boiled down: as §1
Assay [4] deals with GA-10 (Burkitt's Lymphoma). The assay is described as above. The method, boiled down: as §1
The test system of assay [5] is JIMT-1 (Breast Carcinoma). The assay is described as above. The method in brief:
as §1

Assay [6] relates to JVM-2 (B-Cell Non-Hodgkin's Lymphoma). The assay is described as above. The method, boiled down: as §1
In assay [7] the test system is KYSE-140 (Esophageal Squamous Cell Carcinoma). The assay is described as above. The method, boiled down: as §1
The test system of assay [8] is NCI-H716 (Colorectal Carcinoma). The description is as above. The method in brief: as §1
Assay [9] concerns TE-10 (Esophageal Squamous Cell Carcinoma). Described as above. The method in brief: as §1
The test system of a further assay is KP-N-YN (Neuroblastoma). Briefly: combination Emax (second highest fraction inhibited in the dose matrix, 72 h); higher = more inhibition; extreme values may be limits of the assay. The method in brief: as §1
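Wherever Bliss excess, mean over the matrix is given: after 72 h of two-drug dosing.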

Regarding `CN(CCO)CC[C@H](CSc1ccccc1)Nc1ccc(S(=O)(=O)NC(=O)c2ccc(N3CCC([C@@H](O)c4ccccc4-c4ccc(Cl)cc4)CC3)cc2)cc1S(=O)(=O)C(F)(F)F` [AZD4320] + C[C@@H]1COCCN1C2=NC(=NC(=C2)C3(CC3)[S@](=N)(=O)C)C4=C5C=CNC5=NC=C4 [AZD6738] (first compound max 1 µM, 7x7, partner max 10 µM), the Bliss excess in the assay with A101D (Melanoma) is 0.046; in assay [1] it was -0.0275; in the assay with COLO-792 (Melanoma) it was -0.105; in assay [2], 0.0446; in assay [3], 0.0521; in [4], -0.0075. Also, the Bliss excess in assay [5] is 0.0079; in assay [6], 0.0102; in assay [7] it was -0.0299; in [8], -0.0311; in assay [9], -0.0265.

With `CN(CCO)CC[C@H](CSc1ccccc1)Nc1ccc(S(=O)(=O)NC(=O)c2ccc(N3CCC([C@@H](O)c4ccccc4-c4ccc(Cl)cc4)CC3)cc2)cc1S(=O)(=O)C(F)(F)F` [AZD4320] + C[C@@H](Nc1cc(F)cc(F)c1)c1cc(C(=O)N(C)C)cc2c(=O)cc(N3CCOCC3)oc12 [AZD8186] (first compound max 1 µM, 7x7, partner max 3 µM), the Bliss excess in the assay with A101D (Melanoma) came to 0.0831; in [1], 0.0317; in the assay with COLO-792 (Melanoma), 0.0763; in [2], 0.0138; in assay [3], 0.0131; in assay [4], 0.0166. Besides, the Bliss excess in [5] was 0.0064; in assay [6], 0.0133; in assay [7] it was -0.0136; in [8], 0.0234; in assay [9], 0.0157.

Regarding `CN(CCO)CC[C@H](CSc1ccccc1)Nc1ccc(S(=O)(=O)NC(=O)c2ccc(N3CCC([C@@H](O)c4ccccc4-c4ccc(Cl)cc4)CC3)cc2)cc1S(=O)(=O)C(F)(F)F` [AZD4320] + Cc1cc2ncnn2cc1Nc1ncc2c(n1)n(C1CCOCC1)c(=O)n2C [AZD7648] (first compound max 1 µM, 7x7, partner max 10 µM), the Bliss excess in the assay with A101D (Melanoma) is -0.0275; in assay [1], -0.0061; with COLO-792 (Melanoma), 0.0951; in assay [2], 0.0475; in [3], 0.0627; in assay [4] it was -0.0669. Also, the Bliss excess in assay [5] was -0.0513; in assay [6], -0.0111; in assay [7], -0.0866; in assay [8] it was -0.0253; in assay [9], -0.0276.

`Cc1cc2ncnn2cc1Nc1ncc2c(n1)n(C1CCOCC1)c(=O)n2C` [AZD7648] + C=CCn1c(=O)c2cnc(Nc3ccc(N4CCN(C)CC4)cc3)nc2n1-c1cccc(C(C)(C)O)n1 [AZD1775] (first compound max 10 µM, partner max 1 µM): the Bliss excess in the assay with A101D (Melanoma) is 0.0275; in assay [1] it was -0.0416; in the assay with COLO-792 (Melanoma), 0.0087; in assay [2] it was 0.0149; in [3] it was -0.051; in assay [4] it was 0.037. Further, the Bliss excess in assay [5] was 0.0463; in assay [6], -0.0458; in assay [7] it was 0.0004; in [8] it was 0.0448; in assay [9], 0.0053. Also, the “combination Emax” value in the assay with KP-N-YN (Neuroblastoma) came out at 0.942.

On to `Cc1cc2ncnn2cc1Nc1ncc2c(n1)n(C1CCOCC1)c(=O)n2C` [AZD7648] + CCN(CCO)CCCOc1ccc2c(Nc3cc(CC(=O)Nc4cccc(F)c4)[nH]n3)ncnc2c1 [AZD2811] (first compound max 10 µM, 7x7, partner max 1 µM), for which the Bliss excess with A101D (Melanoma) was -0.0404; in assay [1] it was 0.0249; in the assay with COLO-792 (Melanoma) it was -0.0769; in [2] it was -0.0061; in assay [3], 0.0035; in [4] it was 0.112. For the same compound, the Bliss excess in [5] is -0.0141; in assay [6], 0.0382; in [7] it was 0.033; in assay [8], 0.0292; in [9], 0.043. Moreover, the “combination Emax” value with KP-N-YN (Neuroblastoma) stood at 0.6.

As to `Cc1cc2ncnn2cc1Nc1ncc2c(n1)n(C1CCOCC1)c(=O)n2C` [AZD7648] + CN(C)CCCOc1ccc(-c2ccc3ncc4c(c3c2)n(C2CCOCC2)c(=O)n4C)cn1 [AZD0156] (first compound max 10 µM, 7x7, partner max 1 µM), the Bliss excess in the assay with A101D (Melanoma) was -0.0016; in [1] it was -0.0193; in the assay with COLO-792 (Melanoma) it was 0.036; in assay [2] it was -0.0087; in assay [3] it was -0.0209; in assay [4], -0.0067. Further, the Bliss excess was 0.0217 in assay [5]; -0.0297 in [6]; -0.0325 in assay [7]; 0.0563 in assay [8]; -0.0023 in assay [9]. Also, the “combination Emax” value in the assay on KP-N-YN (Neuroblastoma) amounted to 0.265.

For the compound `Cc1cc2ncnn2cc1Nc1ncc2c(n1)n(C1CCOCC1)c(=O)n2C` [AZD7648] + C[C@@H]1COCCN1C2=NC(=NC(=C2)C3(CC3)[S@](=N)(=O)C)C4=C5C=CNC5=NC=C4 [AZD6738] (first compound max 10 µM, 7x7, partner max 10 µM), the Bliss excess in the assay with A101D (Melanoma) is -0.0272; in [1], 0.0493; with COLO-792 (Melanoma), 0.0187; in assay [2], 0.0179; in assay [3] it was 0.0019; in [4] it was 0.0131. In addition, the Bliss excess is -0.0238 in assay [5]; -0.0555 in assay [6]; -0.0248 in assay [7]; 0.0287 in [8]; 0.0327 in assay [9]. For the same compound, the “combination Emax” value in the assay with KP-N-YN (Neuroblastoma) came out at 0.947.

With `Cc1cc2ncnn2cc1Nc1ncc2c(n1)n(C1CCOCC1)c(=O)n2C` [AZD7648] + O=C(c1cc(Cc2n[nH]c(=O)c3ccccc23)ccc1F)N1CCN(C(=O)C2CC2)CC1 [Olaparib] (first compound max 10 µM, 7x7, partner max 10 µM), the Bliss excess in the assay with A101D (Melanoma) was -0.0478; in assay [1] it was -0.0518; in the assay with COLO-792 (Melanoma), -0.0435; in [2] it was -0.0266; in [3], 0.0289; in assay [4] it was -0.0398. Also, the Bliss excess in assay [5] was -0.0191; in assay [6], -0.0275; in assay [7], -0.0146; in assay [8], -0.0056; in assay [9] it was 0.011. Moreover, the “combination Emax” value in the assay on KP-N-YN (Neuroblastoma) came to 0.346.

Take `COc1cc2c(cc1OCCCCCOc1cc3c(cc1OC)C(=O)N1C=C(C)C[C@H]1C=N3)N=C[C@@H]1CC(C)=CN1C2=O` [SG3199] + O=C(c1cc(Cc2n[nH]c(=O)c3ccccc23)ccc1F)N1CCN(C(=O)C2CC2)CC1 [Olaparib] (first compound max 0.001 µM, 7x7, partner max 10 µM): the Bliss excess with A101D (Melanoma) was -0.0365; in assay [1], -0.0357; in the assay with COLO-792 (Melanoma), -0.0373; in [2], -0.0259; in assay [3] it was 0.0741; in assay [4], -0.0335. The Bliss excess is -0.0188 in assay [5]; -0.0219 in [6]; -0.0186 in assay [7]; -0.0322 in assay [8]; -0.0402 in assay [9]. In addition, in the assay on KP-N-YN (Neuroblastoma), the “combination Emax” value was 0.341.

For the origin of these results see the supplement of paper PMC11061612.
